According to the supplement of paper PMC10883282:
Structures can show the parent of a compound that is named as a salt. ± gives the standard deviation of the averaged measurements.

Tested on: KHOS-NP
Experiment: relative viability vs DMSO control (72 h) (fraction); higher = more viable cells
How it was run: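 Sarcoma cell lines in 384-well plates, seeded to reach 80–90% confluence, were given compound after 24 h and kept 72 h at 37 °C, 5% CO2, with 0.1% DMSO vehicle and a 5 µM positive control. Relative viability came from ATPLite as percent growth, averaged over up to triplicate wells. On the rescaled values, 1 equals full and 0 equals none.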

Row | Compound | relative viability (0.00017 µM) | relative viability (0.00051 µM) | relative viability (0.00152 µM) | relative viability (0.00457 µM) | relative viability (0.01372 µM) | relative viability (0.04115 µM) | relative viability (0.1235 µM) | relative viability (0.3704 µM) | relative viability (1.111 µM) | relative viability (3.333 µM) | relative viability (10 µM) | relative viability (2 pM) | relative viability (5 pM) | relative viability (15 pM) | relative viability (50 pM) | relative viability (0.00014 µM) | relative viability (0.00041 µM) | relative viability (0.0012 µM) | relative viability (0.0037 µM) | relative viability (0.011 µM) | relative viability (200 fM) | relative viability (600 fM)
1 | Nc1cc(C(F)(F)F)c(-c2cc(N3CCOCC3)nc(N3CCOCC3)n2)cn1 [Buparlisib] | 1.067 ± 0.01 | 1.03 ± 0.024 | 1.07 ± 0.038 | 1.06 ± 0.012 | 1.07 ± 0.033 | 1.05 ± 0.013 | 1.07 ± 0.022 | 1.07 ± 0.048 | 0.944 ± 0.053 | 0.426 ± 0.026 | 0.266 ± 0.013 |  |  |  |  |  |  |  |  |  |  | 
2 | CC(C)NC(=O)C1CCC(n2c(NC(=O)c3ccc(F)cc3)nc3ccc(CN4CCC(C(C)(C)O)CC4)cc32)CC1 (stereo not given) [Belizatinib] | 1.09 ± 0.025 | 1.095 ± 0.005 | 1.109 ± 0.0095 | 1.1 ± 0.02 | 1.104 ± 0.011 | 1.1 ± 0.021 | 1.1 ± 0.016 | 1.09 ± 0.028 | 1.09 ± 0.033 | 0.996 ± 0.059 | 0.654 ± 0.033 |  |  |  |  |  |  |  |  |  |  | 
3 | CC1(C)CNc2cc(NC(=O)c3cccnc3NCc3ccncc3)ccc21 [Motesanib] | 1.03 ± 0.03 | 1.04 ± 0.021 | 1.03 ± 0.021 | 1.01 ± 0.028 | 1.02 ± 0.037 | 1.02 ± 0.023 | 1.03 ± 0.013 | 1.03 ± 0.021 | 1 ± 0.021 | 0.973 ± 0.024 | 0.882 ± 0.048 |  |  |  |  |  |  |  |  |  |  | 
4 | CC(=O)Nc1cccc(-n2c(=O)n(C3CC3)c(=O)c3c(Nc4ccc(I)cc4F)n(C)c(=O)c(C)c32)c1 [Trametinib] | 1.08 ± 0.012 | 1.09 ± 0.014 | 1.05 ± 0.019 | 0.975 ± 0.048 | 0.532 ± 0.055 | 0.312 ± 0.013 | 0.278 ± 0.0054 | 0.275 ± 0.011 | 0.256 ± 0.0076 | 0.25 ± 0.014 | 0.231 ± 0.02 |  |  |  |  |  |  |  |  |  |  | 
5 | COc1cc2c(cc1O)CCN[C@]21CS[C@@H]2c3c(OC(C)=O)c(C)c4c(c3[C@H](COC1=O)N1[C@@H]2[C@H]2c3c(cc(C)c(OC)c3O)C[C@@H]([C@@H]1O)N2C)OCO4 [Trabectedin] |  |  |  |  |  |  |  |  |  |  |  | 1.11 ± 0.026 | 1.11 ± 0.03 | 1.11 ± 0.028 | 1.09 ± 0.018 | 1.04 ± 0.029 | 0.0507 ± 0.011 | 0.0847 ± 0.0079 | 0.102 ± 0.0031 | 0.0529 ± 0.0034 | 1.1 ± 0.03 | 1.12 ± 0.022
6 | CN1CCN(c2ccc3nc(-c4c(N)c5c(F)cccc5[nH]c4=O)[nH]c3c2)CC1 [Dovitinib] | 1.08 ± 0.038 | 1.11 ± 0.018 | 1.107 ± 0.0074 | 1.104 ± 0.007 | 1.13 ± 0.025 | 1.11 ± 0.029 | 1.1 ± 0.033 | 1.04 ± 0.07 | 1.03 ± 0.035 | 0.677 ± 0.029 | 0.248 ± 0.032 |  |  |  |  |  |  |  |  |  |  | 
7 | C[C@@H]1COCCN1c1cc(-c2ccnn2C)c2ccnc(-c3ccn[nH]3)c2n1 | 1.07 ± 0.036 | 1.07 ± 0.012 | 1.07 ± 0.025 | 1.06 ± 0.029 | 1.06 ± 0.02 | 1.09 ± 0.026 | 1 ± 0.037 | 0.898 ± 0.025 | 0.538 ± 0.042 | 0.377 ± 0.0063 | 0.281 ± 0.026 |  |  |  |  |  |  |  |  |  |  | 
8 | Cn1cc(-c2cc3c(N4CCN(c5ncc([C@@](C)(N)c6ccc(F)cc6)cn5)CC4)ncnn3c2)cn1 [Avapritinib] | 1.021 ± 0.0094 | 1.05 ± 0.031 | 1.02 ± 0.027 | 1.04 ± 0.029 | 1.03 ± 0.017 | 1.03 ± 0.015 | 1 ± 0.022 | 0.948 ± 0.041 | 0.861 ± 0.024 | 0.685 ± 0.033 | 0.586 ± 0.048 |  |  |  |  |  |  |  |  |  |  | 
9 | C[C@]1(O)C[C@@H](c2nc(-c3ccc4ccc(-c5ccccc5)nc4c3)c3c(N)nccn32)C1 [Linsitinib] | 1.11 ± 0.025 | 1.09 ± 0.011 | 1.07 ± 0.025 | 1.08 ± 0.011 | 1.08 ± 0.026 | 1.08 ± 0.012 | 1.08 ± 0.029 | 1.07 ± 0.05 | 1.06 ± 0.064 | 1.02 ± 0.027 | 0.8696 ± 0.0082 |  |  |  |  |  |  |  |  |  |  | 
10 | Cc1nc(NC(=O)N2CCC[C@H]2C(N)=O)sc1-c1ccnc(C(C)(C)C(F)(F)F)c1 [Alpelisib] | 1.07 ± 0.031 | 1.073 ± 0.0087 | 1.06 ± 0.024 | 1.05 ± 0.021 | 1.03 ± 0.028 | 1.02 ± 0.018 | 1.02 ± 0.067 | 1.04 ± 0.014 | 0.992 ± 0.053 | 0.9227 ± 0.0047 | 0.828 ± 0.049 |  |  |  |  |  |  |  |  |  |  | 
11 | COc1cccc2c1C(=O)c1c(O)c3c(c(O)c1C2=O)C[C@@](O)(C(=O)CO)C[C@@H]3O[C@H]1C[C@H](N)[C@H](O)[C@H](C)O1 [Doxorubicin Hydrochloride] | 1.09 ± 0.024 | 1.08 ± 0.04 | 1.07 ± 0.042 | 1.07 ± 0.0061 | 1.02 ± 0.062 | 1.04 ± 0.033 | 0.814 ± 0.038 | 0.475 ± 0.029 | 0.266 ± 0.014 | 0.0899 ± 0.0038 | 0.058 ± 0.0052 |  |  |  |  |  |  |  |  |  |  | 
12 | CNC(=O)c1ccc(-c2cnc3ncc(Cc4ccc5ncccc5c4)n3n2)cc1F [Capmatinib] | 1.1 ± 0.021 | 1.08 ± 0.016 | 1.098 ± 0.0065 | 1.06 ± 0.023 | 1.094 ± 0.0089 | 1.1 ± 0.032 | 1.09 ± 0.021 | 1.07 ± 0.035 | 1.09 ± 0.023 | 1.09 ± 0.021 | 1.09 ± 0.026 |  |  |  |  |  |  |  |  |  |  | 
13 | Cc1ccc(NC(=O)c2ccc(CN3CCN(C)CC3)cc2)cc1Nc1nc(-c2cccnc2)cs1 [Masitinib] | 1.05 ± 0.026 | 1.05 ± 0.035 | 1.089 ± 0.0014 | 1.083 ± 0.01 | 1.06 ± 0.028 | 1.09 ± 0.025 | 1.04 ± 0.052 | 1.01 ± 0.024 | 0.857 ± 0.018 | 0.612 ± 0.051 | 0.185 ± 0.0074 |  |  |  |  |  |  |  |  |  |  | 
14 | C[C@@H](c1ccc2nccn2c1)n1nnc2ncc(-c3cnn(C)c3)nc21 [Volitinib] | 1.07 ± 0.012 | 1.09 ± 0.018 | 1.09 ± 0.013 | 1.091 ± 0.0095 | 1.08 ± 0.015 | 1.08 ± 0.024 | 1.07 ± 0.015 | 1.06 ± 0.038 | 1.04 ± 0.035 | 1.02 ± 0.011 | 0.8916 ± 0.004 |  |  |  |  |  |  |  |  |  |  | 
15 | CC(C)(C)c1cc(NC(=O)Nc2ccc(-c3cn4c(n3)sc3cc(OCCN5CCOCC5)ccc34)cc2)no1 [Quizartinib] | 1.13 ± 0.012 | 1.1 ± 0.027 | 1.1 ± 0.019 | 1.08 ± 0.035 | 1.096 ± 0.0028 | 1.09 ± 0.013 | 1.069 ± 0.0099 | 1.07 ± 0.034 | 1.05 ± 0.025 | 0.998 ± 0.067 | 0.99 ± 0.032 |  |  |  |  |  |  |  |  |  |  | 
